The values below come from patent US4581225A, “Sustained release intranasal formulation and method of use thereof” (Eli Lilly and Company, priority 1985, dated 1986).

Counter-ions that a name gives are not always drawn.

Usually AUC stands for the area under the concentration-time curve, a measure of exposure.

The conditions of series [1]: background statement; cited from earlier work.
The test system of series [2] is catechol-O-methyltransferase. The following applies: background statement; cited from earlier work.
Series [3] in a line: dobutamine plasma levels in anesthetized rats after intravenous bolus and intranasal saline solution. Type of series: in vivo. Particulars: rat. The protocol: According to the present invention, it has been unexpectedly discovered that a catecholamine can be formulated for nasal administration and upon administration achieve equivalent bioavailability as compared to intravenous administration. The purpose of the following study is to examine the bioavailability of the catecholamine dobutamine when administered intranasally and intravenously.
Six male rats weighing 280 g were anesthetized with sodium pentobarbital (50 mg/kg I.P.). Three rats were dosed intravenously with dobutamine hydrochloride at 2.5 mg/kg. Blood samples were taken at 0.5, 2, 4, 6, 10, 15, 20 and 30 minutes for dobutamine plasma analysis. The three remaining rats received dobutamine at 2.5 mg/kg intranasally in a saline solution. Blood samples from these rats were taken at 1, 5, 10, 20, 30, 60 and 120 minutes.
As is known, the one time intravenous administration of dobutamine hydrochloride at 2.5 mg/kg produced a very high dobutamine blood level (greater than 1000 ng/ml) within 30 seconds after administration. The duration of dobutamine in the blood as a result of this method of administration was brief however, lasting only for a period of approximately 30 minutes. For comparison, 1.456 mg of dobutamine hydrochloride was dissolved in 0.2 ml of saline solution and 0.1 ml of this solution was administered intranasally to a 291 g rat to provide a dose of 2.5 mg/kg. […] The intranasal delivery of dobutamine produced a moderate dobutamine blood level of 100 ng/ml after 20 minutes.
The area under the curve (AUC) was calculated with computer assistance employing the trapezoidal method for each route of administration.

Regarding `CC(CCc1ccc(O)cc1)NCCc1ccc(O)c(O)c1` (racemic) [dobutamine, (+,-) 4-[2-[[3-(p-hydroxyphenyl)-1-methylpropyl]amino]ethyl]pyrocatechol], in series [1], the “half-life in the body” value is 2 min. Moreover, in series [2], the “biotransformation by catechol-O-methyltransferase” value is recorded as “very rapidly biotransformed”.
In the case of `CC(CCc1ccc(O)cc1)NCCc1ccc(O)c(O)c1` (centres unmarked) [dobutamine hydrochloride], the concentration at 20 min in series [3] (blood, intranasal saline solution 2.5 mg/kg, after 20 minutes, read-out: dobutamine blood level) came out at 100 ng/mL. Also, the concentration at 0.5 min in series [3] (blood, intravenous bolus 2.5 mg/kg, within 30 seconds after administration, average of three, read-out: dobutamine blood level) was > 1000 ng/mL. Besides, the AUC at 0.5 h in series [3] (plasma, IV bolus 2.5 mg/kg, trapezoidal method, sampled 0.5-30 minutes, read-out: Area Under the Curve (AUC) (converted)) is 37.1 ng·h/mL. Also, in series [3] (plasma, intranasal saline solution 2.5 mg/kg, trapezoidal method, sampled 1-120 minutes, read-out: Area Under the Curve (AUC) (converted)), the AUC at 2 h is 188 ng·h/mL. Further, the “persistence of effective blood level” value in series [3] (intranasal saline solution 2.5 mg/kg, after two hours) was “effective blood level remained after two hours”. Further, the “duration of dobutamine in the blood” value in series [3] (intravenous bolus 2.5 mg/kg) is “approximately 30 minutes”.
